Reference: ChEMBL document CHEMBL1201862, “PubChem BioAssay data set” (2004)
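96-well plates; 48 h exposure; 5 concentrations. Endpoints by linear interpolation between flanking doses. Not reached: highest tested concentration assigned. GI50 = concentration required for 50% inhibition of growth.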 Calls of active or inactive are those of the source. Rule as the data show it: active = GI50 up to about 1.1 µM and inactive = higher.

Tests used:
Experiment in all cases: growth of human tumour cells (NCI), 48 h
[1] = system: SN12C
[2] = system: OVCAR-8
[3] = system: IGROV-1
[4] = system: RPMI-8226
[5] = system: HOP-62
[6] = system: HL-60
[7] = system: SR
[8] = system: HCT-116
[9] = system: RXF 393
[10] = system: SNB-19
[11] = system: U-251
[12] = system: HOP-92
[13] = system: NCI-H226
[14] = system: OVCAR-4
[15] = system: COLO 205
[16] = system: SF-268
[17] = system: SW-620

Measured: GI50

CCOC(OC1=C(C#N)CCCC1)C(CC)[Se]c1ccccc1[N+](=O)[O-] (configuration not stated)
inactive: [1] 19.6 µM | [2] 24 µM | [3] 23.9 µM | [4] 19.5 µM | [5] 32.1 µM | [6] 17.1 µM | [7] 16.7 µM | [8] 19.4 µM | [9] 28.8 µM | [10] 29 µM | [11] 16.6 µM | [12] 18.4 µM | [13] 17.7 µM | [14] 17.9 µM | [15] 29.6 µM | [16] 23 µM

CC1(n2nc(-c3ccccc3)n(-c3ccccc3)c2=O)CSC1
inactive: [1] > 100 µM | [2] > 100 µM | [17] > 100 µM | [3] > 100 µM | [4] > 100 µM | [5] > 100 µM | [6] > 100 µM | [7] > 100 µM | [8] > 100 µM | [9] > 100 µM | [10] > 100 µM | [11] > 100 µM | [12] > 100 µM | [13] > 100 µM | [14] > 100 µM | [15] > 100 µM | [16] > 100 µM

O=C(c1ccccc1)[C@H]1Nc2ccc(Cl)cc2[C@H]2OCCC[C@@H]12
inactive: [1] 19.7 µM | [2] 20.9 µM | [17] 17.3 µM | [3] 39 µM | [4] 19.3 µM | [5] 18 µM | [7] 26.1 µM | [8] 16.3 µM | [9] 17.3 µM | [10] 27.6 µM | [11] 17.3 µM | [13] 21.3 µM | [14] 20.7 µM | [15] 21.5 µM | [16] 19 µM

C[P+](C)(C)c1ccccc1
inactive: [1] > 100 µM | [2] > 100 µM | [17] > 100 µM | [3] > 100 µM | [4] > 100 µM | [5] > 100 µM | [6] > 100 µM | [7] > 100 µM | [8] > 100 µM | [9] > 100 µM | [10] > 100 µM | [11] > 100 µM | [12] > 100 µM | [13] > 100 µM | [14] > 100 µM | [15] > 100 µM | [16] > 100 µM

COc1ccc(S(=O)(=O)N/N=C(\C)CN2C(=O)c3ccccc3C2=O)cc1
inactive: [1] > 100 µM | [2] > 100 µM | [17] > 100 µM | [3] > 100 µM | [4] > 100 µM | [5] > 100 µM | [6] > 100 µM | [7] > 100 µM | [8] > 100 µM | [10] > 100 µM | [11] > 100 µM | [13] > 100 µM | [14] > 100 µM | [15] > 100 µM | [16] > 100 µM

CN(C)CCC(/C=C/c1ccccc1)=N\Nc1c(F)c(F)c(F)c(F)c1F
inactive: [1] 64.6 µM | [2] 53.8 µM | [17] > 100 µM | [3] > 100 µM | [4] 24.8 µM | [5] > 100 µM | [6] 16 µM | [7] 28.4 µM | [8] > 100 µM | [9] 11.3 µM | [10] > 100 µM | [11] > 100 µM | [14] > 100 µM | [15] > 100 µM | [16] > 100 µM

O=P(Nc1cccc(Cl)c1)(Oc1ccccc1)N(CCCl)CCCl (configuration not stated)
inactive: [1] 14.9 µM | [2] 17 µM | [17] 16.7 µM | [3] 15.8 µM | [5] 16.6 µM | [6] 70.6 µM | [7] 31.6 µM | [8] 13.1 µM | [11] 14.6 µM | [12] 11.9 µM | [13] 15 µM | [14] 11.7 µM | [15] 15.9 µM | [16] 15.1 µM

Cn1c(=O)n(CC2CS2)c2ccccc21 (configuration not stated)
inactive: [1] > 100 µM | [2] > 10 µM | [17] > 100 µM | [3] > 100 µM | [4] > 100 µM | [5] > 100 µM | [6] 71.6 µM | [7] 99.3 µM | [8] > 100 µM | [9] > 100 µM | [10] > 100 µM | [12] 68.4 µM | [13] > 100 µM | [14] > 100 µM | [15] > 100 µM | [16] > 100 µM

Cc1cc(O)nc(NNC(C#N)c2cccc(O)c2)n1 (configuration not stated)
inactive: [1] > 100 µM | [2] > 100 µM | [17] > 100 µM | [3] > 100 µM | [4] > 100 µM | [5] > 100 µM | [6] > 100 µM | [7] > 100 µM | [8] > 100 µM | [9] > 100 µM | [11] > 100 µM | [12] > 100 µM | [13] > 100 µM | [14] > 100 µM | [15] > 100 µM | [16] > 100 µM

CCOC(=O)[C@H]1Nc2ccc(Cl)cc2[C@H]2OCC[C@@H]12
inactive: [1] > 100 µM | [2] > 100 µM | [17] > 100 µM | [3] > 100 µM | [5] > 100 µM | [6] > 100 µM | [8] > 100 µM | [9] > 100 µM | [10] > 100 µM | [11] > 100 µM | [13] > 100 µM | [14] > 100 µM | [15] > 100 µM | [16] > 100 µM

O=C(c1ccc(O)cc1O)C1C(c2ccc(O)cc2)OC(c2ccc(O)cc2)C1C(=O)c1ccc(O)cc1O (configuration not stated)
inactive: [1] > 10 µM | [2] 21.8 µM | [17] 30.6 µM | [5] 5.26 µM | [6] 17.8 µM | [9] 25.5 µM | [10] 20.6 µM | [11] 16.5 µM | [13] 17.2 µM | [14] 28.4 µM | [16] 17.1 µM

O=Cc1cn(C(=O)c2ccccc2)c2ccccc12
inactive: [2] > 100 µM | [17] > 100 µM | [3] > 100 µM | [4] 37.2 µM | [5] > 100 µM | [6] 28.7 µM | [8] 43.2 µM | [9] 53.5 µM | [11] > 100 µM | [13] 56 µM | [14] > 100 µM

COc1ccc(C2Oc3cc(OC)c(O)cc3[C@@H]2C)cc1 (some centres not stated)
inactive: [2] 23.2 µM | [17] 17.1 µM | [3] > 10 µM | [4] 22.3 µM | [5] > 100 µM | [6] 18.2 µM | [8] 12.8 µM | [9] 28.2 µM | [10] 1.87 µM | [11] > 100 µM | [12] 15.3 µM | [13] 17.2 µM | [14] 32.5 µM | [15] > 100 µM | [16] 48.8 µM

C=C1C(=O)O[C@@H]2C[C@]3(C)[C@@H](C[C@H]12)[C@](C)(O)CC[C@@H]3O
inactive: [1] 59.4 µM | [2] 36.6 µM | [17] 45.9 µM | [3] > 100 µM | [4] 52.7 µM | [5] > 100 µM | [8] 36 µM | [10] > 100 µM | [11] > 100 µM | [12] 81.3 µM | [13] 48.3 µM | [14] > 100 µM | [15] 38.8 µM | [16] 42.4 µM

CC1(c2ccc(Cl)cc2)C2C(=O)NC(=O)C1C(=O)NC2=O (configuration not stated)
inactive: [1] > 100 µM | [2] > 100 µM | [17] > 100 µM | [3] > 100 µM | [4] > 100 µM | [5] > 100 µM | [6] > 100 µM | [9] > 100 µM | [10] > 100 µM | [12] > 100 µM | [14] > 100 µM | [15] > 100 µM | [16] > 100 µM

Cc1cc(N(CCC#N)CCC#N)ccc1/N=N/c1cccc(C(=O)O)c1
inactive: [1] > 100 µM | [2] > 100 µM | [17] > 100 µM | [3] > 100 µM | [5] > 100 µM | [6] > 100 µM | [9] > 100 µM | [11] > 100 µM | [13] > 100 µM | [14] > 100 µM | [15] > 100 µM | [16] > 100 µM

Clc1ccc2c(Cl)nc(-c3ccccc3)nc2c1
inactive: [1] 21.8 µM | [2] 34 µM | [17] 33.9 µM | [3] 24.5 µM | [4] 10 µM | [5] 53.2 µM | [6] 20.2 µM | [7] 25.2 µM | [8] 27.4 µM | [9] 23.4 µM | [10] 35.6 µM | [11] 11.8 µM | [13] 13.2 µM | [15] 41.2 µM | [16] 24.9 µM

Cc1ccc(C(=O)CC2=Nc3nnc(CCCCCCCc4nnc5n4C(=O)C(CC(=O)c4ccc(C)cc4)=N5)n3C2=O)cc1
inactive: [1] > 100 µM | [2] > 100 µM | [17] > 100 µM | [3] > 100 µM | [4] > 100 µM | [5] > 100 µM | [6] > 100 µM | [7] > 100 µM | [8] > 100 µM | [9] > 100 µM | [10] > 100 µM | [11] > 100 µM | [13] > 100 µM | [14] > 100 µM | [15] > 100 µM | [16] > 100 µM
